Results from article PMC9927457 (Microbiology Spectrum, 2023).
≈ marks a conversion by molar mass, not a printed value. Like-named read-outs stand apart in the source and are kept apart here.

Assays:
[1] = target: SPase activity in M. tuberculosis H37Rv cell membrane fractions (Mycobacterium tuberculosis, UniProt P9WKA1); experiment: Inhibition of secretion (SPase activity) in membrane fractions; type: biochemical; settings: fluorogenic peptide substrate 2 μM; 4 h, 37 °C
[2] = test system: M. tuberculosis wild-type strain; experiment: MIC against wild-type M. tuberculosis; type: cell-based, Mycobacterium tuberculosis; settings: for MIC: read-out: MIC Wild type
HepG2 cells = experiment: HepG2 cytotoxicity; type: cell-based, human; settings: 3 days exposure, CellTiter-Glo
Procedure: HepG2 cells were used to measure eukaryotic cytotoxicity. Viability of HepG2 was measured using CellTiter-Glo reagent (Promega) after 3 days of exposure to compounds. […] Staurosporine controls (maximum inhibition) and a staurosporine dose response were included on every plate.

[3] = test system: M. tuberculosis strain under expressing LepB (LepB-UE); experiment: microbe, parasite or virus in culture; type: cell-based, Mycobacterium tuberculosis
RAW 264.7 macrophages = experiment: Cytotoxicity against infected macrophages; type: cell-based, murine; settings: Mus musculus; infected RAW264:7 cells, 72 h; read-out: IC50 Macrophage
Procedure: Murine RAW 264.7 macrophages (ATCC TIB-71) were infected with M. tuberculosis DsRed (DREAM8) ([29]) as described at a multiplicity of infection of 1 for 24 h, washed, harvested, and dispensed into 384-well plates ([30]). Infected macrophages were exposed to compounds for 72 h; cell nuclei were stained with SYBR green I. Plates were imaged with an ImageXpress Micro High Content Screening System (Molecular Devices) using a ×4 objective and FITC and Texas Red channels. MetaXpress was used to determine the integrated intensity of bacteria or macrophages. […] Isoniazid and staurosporine controls (maximum inhibition) and dose responses were included on every plate.

[4] = Plasma protein binding (Rapid Equilibrium Dialysis); type: in vitro ADME, human
Procedure: Molecule fraction fraction Post-Assay
Table S5. Plasma protein binding
Protein binding was measured in human plasma using Rapid Equilibrium Dialysis (RED) devices (Pierce) according to the manufacturers’ instructions; 5 µM compounds in plasma were dialysed against PBS for 4 h at 37C. Compounds were detected by LC-MS/MS in plasma and PBS

Caco-2 cells = experiment: Caco-2 permeability
Procedure: (§1) Permeability was measured across Caco-2 cells cultured in a Millipore 96-well Caco-2 plate. For apical to basolateral (A→B) permeability, 10 μM compound was added to the apical (A) side and amount of permeation was determined on the basolateral (B) side; for basolateral to apical (B→A) permeability, the compound was added to the B side and the amount of permeation was determine on the A side. Time points were taken at 2 h.
Table S2. Permeability. Permeability was measured using Caco-2 cells after 1 and 2 hours incubation with compound. (A→B) is Apical to Basolateral; (B→A) is Basolateral to Apical. Data is expressed as permeability (10-6 cm s-1). dQ/dt is rate of permeation, C0 is initial concentration […]
Article Duration direction value replicate replicate mean recovery

[5] = Microsomal metabolic stability; settings: human, microsomes, pH 7.4
Procedure: as §1
Table S3. Metabolic stability. Metabolic stability was measured using human liver microsomes. […]

[6] = Mycobacterium tuberculosis, 120 h, concentration required to inhibit growth by 90%, 5 days culture
[7] = concentration required to inhibit growth by 90%, 5 days culture
[8] = Mycobacterium tuberculosis, 120 h

Chain of SPase activity in M. tuberculosis H37Rv cell membrane fractions (P9WKA1 whole entry): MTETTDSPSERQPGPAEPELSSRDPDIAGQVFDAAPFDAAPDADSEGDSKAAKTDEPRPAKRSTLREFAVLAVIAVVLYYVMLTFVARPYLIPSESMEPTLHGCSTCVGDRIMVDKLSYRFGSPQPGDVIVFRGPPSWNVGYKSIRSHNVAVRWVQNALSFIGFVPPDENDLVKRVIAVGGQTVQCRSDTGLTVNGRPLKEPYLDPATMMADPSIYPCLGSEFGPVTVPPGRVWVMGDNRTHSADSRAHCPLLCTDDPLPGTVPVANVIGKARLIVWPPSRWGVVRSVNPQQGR

| Compound | MIC [2, 6] [µM] | IC50 (HepG2 cells; Homo sapiens, HepG2, 72 h) [µM] | MIC [3, 8] [µM] | other results |
| --- | --- | --- | --- | --- |
| COc1ccc(NC(=S)Nc2nccs2)cc1 [Molecule 8] | 27 (≈ 7.16 µg/mL) | 21 ± 19 |  | IC50 [1]: > 200 µM; MIC Wild type [2, 7]: 27 ± 17 µM (≈ 7.16 µg/mL) |
| CCCCNC(=O)Nc1nc2ccccc2s1 [Molecule 5] | > 200 | 39 ± 25 | < 100 | MIC LepB-UE [3]: 61 ± 9.1 µM (≈ 15.2 µg/mL) |
| CCCCNC(=S)Nc1nc(-c2ccccc2)co1 [Molecule 23, 1-butyl-3-(4-phenyloxazol-2-yl)thiourea] | 10 to 11 (≈ 2.75 to 3.03 µg/mL) | 32 ± 4 | 10 to 11 (≈ 2.75 to 3.03 µg/mL) | MIC LepB-UE [3]: 10 ± 2.0 µM (≈ 2.75 µg/mL); IC50 (RAW 264.7 macrophages): 30 ± 6.4 µM; IC50 [1]: > 200 µM; MIC Wild type [2, 7]: 11 ± 4.0 µM (≈ 3.03 µg/mL) |
| 1-butyl-3-(5-methoxybenzo[d]oxazol-2-yl)thiourea [Molecule 35] |  |  |  | MIC [3]: >200 µM; MIC [2, 7]: >200 µM; IC50 (HepG2 cells): > 100 µM |
| CC(C)CNC(=S)Nc1nc2ccccc2s1 [Molecule 28, 1-(benzo[d]thiazol-2-yl)-3-isobutylthiourea] |  |  | 12 to 21 (≈ 3.18 to 5.57 µg/mL) | MIC LepB-UE [3]: 21 ± 11 µM (≈ 5.57 µg/mL) |
| CCCCNC(=S)NC1=NCCS1 [Molecule 15, 1-butyl-3-(4,5-dihydrothiazol-2-yl)thiourea] | 170 (≈ 37 µg/mL) | 75 | 160 (≈ 34.8 µg/mL) | MIC LepB-UE [3]: 160 ± 1.0 µM (≈ 34.8 µg/mL); MIC Wild type [2, 7]: 170 ± 1.0 µM (≈ 37 µg/mL); IC50 (HepG2 cells): > 100 µM |
| CC(C)NC[C@H](O)COc1cccc2ccccc12 (racemic) [Propanolol, propanolol, reference compound] |  |  |  | Mean plasma fraction Unbound Fuplasma ([4]; human plasma, 5 µM, dialysed against PBS 4 h at 37C): 28.00%; Post-Assay Recovery ([4]; human plasma, RED device): 89.4%; Efflux ratio (Re) (Caco-2 cells; Papp(B→A)/Papp(A→B)): 1.5; Mean A→B Papp (Caco-2 cells; apical to basolateral, 10 μM compound, 2 h): 20 10^−6 cm/s; Mean B→A Papp (Caco-2 cells; basolateral to apical, 10 μM compound, 2 h): 30 10^−6 cm/s |
| CCCCNC(=S)Nc1nccc(C)n1 [Molecule 20, 1-butyl-3-(4-methylpyrimidin-2-yl)thiourea] | > 200 | > 100 | > 200 |  |
| c1ccc2scnc2c1 [Molecule 10] | > 200 | 7.6 ± 6.2 | > 100 |  |
| CCCCNC(=S)Nc1nc(C)cs1 [Molecule 16, 1-butyl-3-(4-methylthiazol-2-yl)thiourea] | 59 ± 1 (≈ 13.5 µg/mL) | > 100 | 85 ± 17 (≈ 19.5 µg/mL) | IC50 [1]: > 200 µM |
| CCCCNC(=S)Nc1nc2cccc(Cl)c2o1 [Molecule 34, 1-butyl-3-(7-chlorobenzo[d]oxazol-2-yl)thiourea] | > 200 | 13 ± 3 | 53 ± 1 (≈ 15 µg/mL) | IC50 (RAW 264.7 macrophages): 5.8 ± 0.4 µM |
| Cc1ccc(C(=O)Nc2nc3ccccc3s2)cc1 [Molecule 3] | > 200 | > 100 | 140 (≈ 37.6 µg/mL) |  |
| CCCCNC(=S)Nc1nc2cc(Cl)ccc2o1 [Molecule 32, 1-butyl-3-(5-chlorobenzo[d]oxazol-2-yl) thiourea] | 84 ± 13 (≈ 23.8 µg/mL) | 9 ± 3 | 68 ± 3 (≈ 19.3 µg/mL) |  |
| CCCCCCNc1nc2ccccc2s1 [Molecule 4] | 125 (≈ 29.3 µg/mL) | 55 ± 8.5 | < 100 | MIC LepB-UE [3]: 82 ± 16 µM (≈ 19.2 µg/mL); MIC Wild type [2, 7]: 125 ± 13 µM (≈ 29.3 µg/mL) |
| COc1ccc(NC(=S)Nc2nc3ccccc3s2)cc1 [Molecule 7] | > 200 | > 100 | > 200 |  |
| CCCCNC(=S)Nc1nc2c(Cl)cccc2s1 [Molecule 13, 1-butyl-3-(4-chlorobenzo[d]thiazol-2-yl)thiourea] | > 200 | > 100 | 7.9 (≈ 2.37 µg/mL) | MIC LepB-UE [3]: 7.9 ± 0.6 µM (≈ 2.37 µg/mL); IC50 (RAW 264.7 macrophages): 12 ± 2.8 µM; IC50 [1]: > 200 µM |

| Compound | MIC [2, 6] [µM] | IC50 (HepG2 cells; Homo sapiens, HepG2, 72 h) [µM] | MIC [3, 8] [µM] | other results |
| --- | --- | --- | --- | --- |
| CCCCNC(=S)Nc1ccnn1C [Molecule 19, 1-butyl-3-(1-methyl-1H-pyrazol-5-yl)thiourea] | > 200 | > 100 | > 200 | IC50 [1]: > 200 µM |
| CCCCN(C)C(=S)Nc1nc2ccccc2s1 [Molecule 27, 3-(benzo[d]thiazol-2-yl)-1-butyl-1-methylthiourea] | 195 ± 7 (≈ 54.5 µg/mL) | 5.6 | 155 to 195 (≈ 43.3 to 54.5 µg/mL) | MIC LepB-UE [3]: 155 ± 36 µM (≈ 43.3 µg/mL); IC50 [1]: > 200 µM; MIC [2, 8]: 155 to 195 µM (≈ 43.3 to 54.5 µg/mL); IC50 (HepG2 cells): 6 ± 5 µM |
| S=C(NCc1ccccc1)Nc1nc2ccccc2s1 [Molecule 6] | > 200 | 6 ± 0.1 |  |  |
| COc1ccc2c(c1)[C@]13CCCC[C@@H]1[C@H](C2)N(C)CC3 [Dextromethorphan, dextromethorphan, reference compound] |  |  |  | half-life at 1 µM [5]: 1.97 h; microsomal CLint at 1 µM [5]: 19.5 µL/min/mg |
| CCCCSC(=S)Nc1nc2ccccc2s1 [Molecule 25, butyl benzo[d]thiazol-2-ylcarbamodithioate] | 90 ± 20 (≈ 25.4 µg/mL) | 29 ± 1 | 101 ± 27 (≈ 28.5 µg/mL) |  |
| CC(=O)CC(c1ccccc1)c1c(O)c2ccccc2oc1=O (stereo not drawn) [Warfarin, reference compound] |  |  |  | recovery at 4 h, 5 µM ([4]; human plasma, RED device, read-out: Post-Assay Recovery): 88.6%; fraction unbound ([4]; human, plasma, human plasma, 5 µM, dialysed against PBS 4 h at 37C, read-out: Mean plasma fraction Bound (converted)): 0.007; fraction unbound ([4]; human, plasma, human plasma, 5 µM, dialysed against PBS 4 h at 37C, read-out: Mean plasma fraction Unbound Fuplasma): 0.0067 |
| CCCCNC(=S)Nc1nc2ccc(Cl)cc2o1 [Molecule 33, 1-butyl-3-(6-chlorobenzo[d]oxazol-2-yl)thiourea] | > 200 | 32 ± 3 | 49 ± 6 (≈ 13.9 µg/mL) | IC50 [1]: > 200 µM |
| CCCCNC(=S)Nc1ccccn1 [Molecule 9] | > 200 | 65 ± 50 | 100 (≈ 20.9 µg/mL) |  |
| CCCCNC(=S)Nc1nc(C)c[nH]1 [Molecule 18, 1-butyl-3-(4-methyl-1H-imidazol-2-yl)thiourea] | 44 (≈ 9.34 µg/mL) | 61 ± 4 | 51 (≈ 10.8 µg/mL) | MIC LepB-UE [3]: 51 ± 1.0 µM (≈ 10.8 µg/mL); MIC Wild type [2, 7]: 44 ± 8.0 µM (≈ 9.34 µg/mL) |
| S=C(NCCc1ccccc1)Nc1nc2ccccc2s1 [Molecule 26, 1-(benzo[d]thiazol-2-yl)-3-phenethylthiourea] | > 200 | 8 ± 6 | 8 ± 3 (≈ 2.51 µg/mL) | IC50 (RAW 264.7 macrophages): 1.4 ± 0.2 µM; IC50 [1]: > 200 µM; fraction unbound at 4 h, 5 µM ([4]; human, plasma, Mean plasma fraction Bound): 0.055 |
| CCCCCC(=O)Nc1nc2ccccc2s1 [Molecule 2] | > 200 | 74 ± 13 | > 200 |  |
| CCCCNC(=S)Nc1nc(C)c(C)s1 [Molecule 17, 1-butyl-3-(4,5-dimethylthiazol-2-yl)thiourea] | > 200 | > 100 | 112 ± 25 (≈ 27.3 µg/mL) |  |
| CCCCNC(=S)Nc1nc2ccccc2[nH]1 [Molecule 11, 1-(benzo[d]imidazol-2-yl)-3-butylthiourea] | 120 ± 10 (≈ 29.8 µg/mL) | 6 ± 0.1 | 29 ± 2.1 (≈ 7.2 µg/mL) | IC50 [1]: > 200 µM |
| CCCCNC(=S)Nc1ccc2scnc2c1 [Molecule 30, 1-(benzo[d]thiazol-5-yl)-3-butylthiourea] | 73 ± 12 (≈ 19.4 µg/mL) | > 100 | 49 ± 15 (≈ 13 µg/mL) |  |
| CCCCNC(=S)Nc1ncc(C)o1 [Molecule 22, 1-butyl-3-(5-methyloxazol-2-yl)thiourea] | 10 (≈ 2.13 µg/mL) | 32 ± 19 | 8 to 9 (≈ 1.71 to 1.92 µg/mL) | MIC LepB-UE [3]: 9.1 ± 0.4 µM (≈ 1.94 µg/mL); IC50 (RAW 264.7 macrophages): 7.1 ± 1.5 µM; MIC Wild type [2, 7]: 10 ± 12 µM (≈ 2.13 µg/mL) |
